From patent US11583570B2, “Use of autoinducer-related pathway in inducing apoptosis and anti-infective therapy” (TSINGHUA UNIVERSITY, priority 2017, dated 2023)

Assays:
[1] = system: primary T cell and T cell line; experiment: T cell activation (IL-2 release, CD69 expression); type: cell-based, mouse; conditions: induced by MHC class I and class II-restricted antigens or PMA plus ionophore
Method: (§1) Cell apoptosis was detected with Annexin V/PI apoptosis detection Kit. Briefly, cells were stimulated with HSLs or left untreated. 6 hrs later, cells were collected and stained with Annexin VFITC and PI for 15 min at RT, then the apoptotic effect was measured by flow cytometry. OT-I or OT-II splenocytes were pulsed with specific peptides or PMA and ionomycin mixture with or without HSLs or TNF α plus cycloheximide. 24 hrs later, cells and supernatants were collected separately. For OT-I activation, cells were stained with CD69 and CD8. For OT-II activation, cells were stained with CD69 and CD4. Cell activation was measured by flow cytometry. All supernatants were detected for IL-2 secretion by ELISA.

[2] = system: T cell; experiment: Annexin V/PI apoptosis detection, T cells; type: cell-based; conditions: 10 and 20 μM
Method: as §1

[3] = system: transformed DC line DC2.4; experiment: Annexin V/PI apoptosis detection, DC2.4; type: cell-based
Method: as §1

[4] = system: FADD in complex with caspase 8; experiment: FADD / caspase 8 co-immunoprecipitation; type: cell-based; conditions: following 3OC12 HSL treatment
Method: For FADD immunoprecipitation, 4 μg anti-mouse FADD pAb (Santa Cruz, H-181) were incubated with 100 μl protein A/G agarose for 2 hrs at RT. 3 million/ml purified CD4 T cells were stimulated with HSLs or left untreated. The cells were then collected and lysed with IP lysis buffer (50 mM HEPES pH 7.4, 150 mM NaCl, 1% NP-40, 1 mM EDTA, 1 mM PMSF, 1 mM NaF, 1 mM NaVO3 and protease inhibitor cocktails). The cell lysates were added into antibody-bead mixtures for 3 hrs at 4° C. Beads were then collected by low speed centrifugation (1000 g, 5 min) and washed 4 times with IP lysis buffer (300 mM NaCl added). After the last wash, pellets were suspended with 70 ul 2×SDS loading buffer and boiled for 5 min. For caspase 8 immunoprecipitation, 4 μg anti-Caspase 8 pAb (Santa Cruz, C-20) was incubated with 100 μl protein A/G agarose for 1 hr at RT. 3 million/ml H9 cells were treated with HSLs or left untreated. The samples were processed as in FADD IP. For cross-linking assay, CD4+ T cells isolated from C57BL/6 mice spleen or human THP-1 cells was stimulated with HSLs or left untreated, then cells were collected and cross-linked by 10 mM DTSSP at RT for 30 min and quenched with 1M Tris-HCl (pH7.5) for 15 min. […]

[5] = system: Iκbα; experiment: Iκbα degradation in non-apoptotic Jurkat cells; type: cell-based
[6] = biological target: T1, TNFR1 (Mus musculus, UniProt P25118); experiment: Quantum dot-based single particle tracking, TNFR1; type: cell-based
T1 construct: To track individual TNFR1 on the cell membrane; endogenous in cells
T1 sequence (P25118 30-454): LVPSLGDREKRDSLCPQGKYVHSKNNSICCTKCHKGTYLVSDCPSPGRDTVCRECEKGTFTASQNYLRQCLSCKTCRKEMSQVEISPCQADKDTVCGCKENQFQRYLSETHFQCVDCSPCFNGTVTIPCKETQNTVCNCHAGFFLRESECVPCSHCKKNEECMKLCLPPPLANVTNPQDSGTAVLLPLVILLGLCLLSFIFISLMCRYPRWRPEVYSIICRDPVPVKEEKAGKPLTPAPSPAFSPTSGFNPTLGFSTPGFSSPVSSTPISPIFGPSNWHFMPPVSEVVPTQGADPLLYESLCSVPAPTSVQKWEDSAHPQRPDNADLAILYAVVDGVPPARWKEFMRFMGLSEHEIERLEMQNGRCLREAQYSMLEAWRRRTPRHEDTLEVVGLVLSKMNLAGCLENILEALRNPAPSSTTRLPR
Method: (§2) To track individual TNFR1 on the cell membrane, anti-TNFR1 IgG (was first papain digested to yield a Fab fragment. The Fab was then conjugated with biotin through the unique —SH at its C terminal. To prepare anti TNFR1 Fab QD conjugates, a solution of 0.7 nM anti TNFR1—Fab-biotin in 1 ml of DMEM was added drop-wise to 1 ml of 2 nM QD 605-streptavidin conjugate. Cell monolayers (50% confluent) previously serum starved for 1 hr were treated with 3OC12 HSL or left untreated and incubated with […] of the final anti TNFR1-Fab-QD solution at 25° C. for 2 min. The cells were then washed twice with PBS at 25° C., placed in serum-free medium, and loaded for imaging. For single-FcRγIIA tracking, Fc fragment was obtained by papain digestion of an anti-BSA IgG (Sigma Aldrich). Fc-QD conjugate was produced as described before. Cos-1 cells were transiently transfected with Fcγ RIIA plasmid, 24 hrs later, cells were stimulated with 3OC12 HSL or left untreated and incubated with […] of the final Fc-QD solution at 25° C. for 2 min. Quantum dot-labeled cells were imaged in TIRF mode. The fluorescence was excited at 488 nm and gated by a band-pass filter (575-640, Carl Zeiss). The excitation power was about 2 mW measured after the objective. Movies of 400 frames were acquired for each sample at a full-frame rate of 17 Hz. Individual trajectories were constructed by Utrack written in Matlab. Diffusion coefficient and plot area were calculated by customized programs written with Matlab. For motion pattern determination by MSD-t analysis 5: linear, simple Brownian diffusion; open-up parabolic, directed diffusion; open-down parabolic, restricted diffusion; and near zero, stationary.

[7] = system: Fcγ RIIA; experiment: Quantum dot-based single particle tracking, Fcγ RIIA in Cos-1 cells; type: cell-based, human
Method: as §2

CCCCCCCCCC(=O)CC(=O)N[C@H]1CCOC1=O [3OC12 HSL, N-(3-oxo-dodecanoyl) homoserine lactone]
T cell activation measured by IL-2 release and CD69 expression [1]: suppress | T cell death [2]: significant T cell death | sensitivity to 3OC12 HSL [3]: sensitive | FADD association with caspase 8 [4]: in complex with caspase 8 | Iκbα degradation [5]: degraded | TNFR1 diffusion coefficient [6]: significantly increased | TNFR1 x-y surface area coverage [6]: high x-y surface area coverage | TNFR1 motion pattern ([6]; MSD analysis): more likely to fall into the simple mode of motion | Fcγ RIIA motion pattern [7]: higher percentage of Fcγ RIIA belonged to the simple and directed motions | Fcγ RIIA diffusion coefficient ([7]; without 3OC12 HSL 0.1056): 0.1564+/−0.006 | area covered by Fcγ RIIA motion tracks ([7]; without 3OC12 HSL 0.6467): 0.9310+/−0.045
